# Assay results: US11225505B2, “Antimicrobial polymyxin derivative compounds” (MONASH UNIVERSITY, priority 2015, dated 2022)
# Where a SMILES comes first, the peptide text is derived from it. Bridges are numbered along the chain shown (N, C = ends). [ ]: non-standard residue; d: D form. The star is where a group is joined. X55 = O=C(c1ccc(-c2ccc(Cl)nc2)cc1)*; X22 = Cn1c(C(=O)*)cc2ccccc21; X32 = O=C(c1cnc(Cl)c(Cl)c1)*; X15 = O=C(c1ccc(Cl)nc1Cl)*; X36 = O=C(c1ncc(Br)cc1Br)*; X13 = O=C(c1ccnc(Br)c1)*; X26 = CCc1ccc(C(=O)*)cn1; Dab = NCC[C@H](N)C(=O)O; X61 = O=C(c1ccc(Br)s1)*; Abu = CC[C@H](N)C(=O)O; Dap = NC[C@H](N)C(=O)O; X71 = O=C(c1sccc1Cl)*
# Columns and labels:
# Format in all cases: cell-based
# [1] = tested on: Enterobacter cloacae FADDI-EC001; details: FADDI-EC001
# In short: (§1)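 Standard CLSI (M100-S24) microdilution in cation-adjusted broth gives the MIC for each strain. Test compounds are TFA-salt lipopeptides; the comparator is polymyxin B sulphate.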
# [2] = tested on: Klebsiella pneumoniae FADDI-KP032; details: FADDI-KP032
# In short: (§2)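 Antibacterial activity is given as MIC from microdilution in CAMHB under the CLSI M100-S24 standard. P. aeruginosa FADDI-PA022 and A. baumannii FADDI-AB034 are multidrug-resistant clinical isolates, while ATCC 17978 is a reference strain.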
# [3] = tested on: Acinetobacter baumannii ATCC 17978; details: ATCC 17978
# In short: as §2
# [4] = tested on: Enterobacter cloacae FADDI-EC006; details: FADDI-EC006
# In short: as §2
# [5] = tested on: Pseudomonas aeruginosa FADDI-PA01; details: FADDI-
# In short: as §2
# [6] = tested on: Pseudomonas aeruginosa FADDI-PA022; details: FADDI-PA022
# In short: as §2
# [7] = tested on: Acinetobacter baumannii FADDI-AB034; details: FADDI-AB034
# In short: as §2
# [8] = tested on: Klebsiella pneumoniae Kp BM1; details: Kp BM1
# In short: as §1
# [9] = tested on: Klebsiella pneumoniae FADDI-KP022; details: FADDI-KP022
# In short: as §2
# [10] = tested on: Enterobacter cloacae FADDI-EC003; details: FADDI-EC003
# In short: as §2
# [11] = tested on: Pseudomonas aeruginosa FADDI-PA038; details: FADDI-PA038
# In short: as §2
# [12] = tested on: Pseudomonas aeruginosa ATCC 27853; details: ATCC 27853
# In short: as §2
# [13] = tested on: Acinetobacter baumannii FADDI-AB030; assay: microbe, parasite or virus in culture; details: FADDI-AB030
# In short: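 Broth microdilution MIC in cation-adjusted Mueller-Hinton broth per CLSI M100-S24; lipopeptides tested as TFA salts. FADDI-AB030 is a multidrug-resistant clinical isolate. Polymyxin B sulphate served as control.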
SMILES,Minimum inhibitory concentration [1] [µg/mL],Minimum inhibitory concentration [2] [µg/mL],Minimum inhibitory concentration [3] [µg/mL],Minimum inhibitory concentration [4] [µg/mL],Minimum inhibitory concentration [5] [µg/mL],Minimum inhibitory concentration [6] [µg/mL],Minimum inhibitory concentration [7] [µg/mL],Minimum inhibitory concentration [8] [µg/mL],Minimum inhibitory concentration [9] [µg/mL],Minimum inhibitory concentration [10] [µg/mL],Minimum inhibitory concentration [11] [µg/mL],Minimum inhibitory concentration [12] [µg/mL],Minimum inhibitory concentration [13] [µg/mL]
CC(C)C[C@H]1NC(=O)[C@H](CCN)NC(=O)[C@@H](NC(=O)[C@H](CN)NC(=O)[C@@H](NC(=O)[C@H](CCN)NC(=O)c2ccc(-c3ccc(Cl)nc3)cc2)[C@@H](C)O)CCNC(=O)[C@H]([C@@H](C)O)NC(=O)[C@H](CCN)NC(=O)[C@H](CCN)NC(=O)[C@H]([C@@H](C)O)NC1=O [Compound 16] (X55-[Dab]T[Dap][Dab][Dab][dL]T[Dab][Dab]T; lactam 4-C),0.5,0.25,2,0.5,0.5,1,4,2,<0.125,<0.125,1,0.5,8
CCc1ccc(C(=O)N[C@@H](CCN)C(=O)N[C@H](C(=O)N[C@@H](CN)C(=O)N[C@H]2CCNC(=O)[C@H]([C@@H](C)O)NC(=O)[C@H](CCN)NC(=O)[C@H](CCN)NC(=O)[C@H](CC)NC(=O)[C@@H](CC(C)C)NC(=O)[C@H](CCN)NC2=O)[C@@H](C)O)cn1 [Compound 41] (X26-[Dab]T[Dap][Dab][Dab][dL][Abu][Dab][Dab]T; lactam 4-C),<0.125,<0.125,2,0.25,0.25,<0.125,2,<0.125,<0.125,<0.125,0.5,0.25,2
CC[C@@H]1NC(=O)[C@@H](CC(C)C)NC(=O)[C@H](CCN)NC(=O)[C@@H](NC(=O)[C@H](CN)NC(=O)[C@@H](NC(=O)[C@H](CCN)NC(=O)c2cnc(Cl)c(Cl)c2)[C@@H](C)O)CCNC(=O)[C@H]([C@@H](C)O)NC(=O)[C@H](CCN)NC(=O)[C@H](CCN)NC1=O [Compound 5] (X32-[Dab]T[Dap][Dab][Dab][dL][Abu][Dab][Dab]T; lactam 4-C),0.25,0.25,1,1,0.25,1,0.5,<0.25,<0.125,0.5,0.5,1,0.5
CC[C@@H]1NC(=O)[C@@H](CC(C)C)NC(=O)[C@H](CCN)NC(=O)[C@@H](NC(=O)[C@H](CN)NC(=O)[C@@H](NC(=O)[C@H](CCN)NC(=O)c2ccc(Cl)nc2Cl)[C@@H](C)O)CCNC(=O)[C@H]([C@@H](C)O)NC(=O)[C@H](CCN)NC(=O)[C@H](CCN)NC1=O [Compound 7] (X15-[Dab]T[Dap][Dab][Dab][dL][Abu][Dab][Dab]T; lactam 4-C),<0.125,1,1,0.25,0.25,1,2,0.5,<0.125,<0.125,0.5,1,0.5
CC[C@@H]1NC(=O)[C@@H](CC(C)C)NC(=O)[C@H](CCN)NC(=O)[C@@H](NC(=O)[C@H](CN)NC(=O)[C@@H](NC(=O)[C@H](CCN)NC(=O)c2ccc(Br)s2)[C@@H](C)O)CCNC(=O)[C@H]([C@@H](C)O)NC(=O)[C@H](CCN)NC(=O)[C@H](CCN)NC1=O [Compound 78] (X61-[Dab]T[Dap][Dab][Dab][dL][Abu][Dab][Dab]T; lactam 4-C),0.25,0.5,0.25,0.25,<0.125,0.25,1,<0.125,0.25,<0.125,0.5,0.25,0.5
CC[C@@H]1NC(=O)[C@@H](CC(C)C)NC(=O)[C@H](CCN)NC(=O)[C@@H](NC(=O)[C@H](CN)NC(=O)[C@@H](NC(=O)[C@H](CCN)NC(=O)c2ccnc(Br)c2)[C@@H](C)O)CCNC(=O)[C@H]([C@@H](C)O)NC(=O)[C@H](CCN)NC(=O)[C@H](CCN)NC1=O [Compound 25] (X13-[Dab]T[Dap][Dab][Dab][dL][Abu][Dab][Dab]T; lactam 4-C),0.5,0.25,1,2,0.25,0.25,1,0.25,<0.125,<0.125,1,0.25,1
CC[C@@H]1NC(=O)[C@@H](CC(C)C)NC(=O)[C@H](CCN)NC(=O)[C@@H](NC(=O)[C@H](CN)NC(=O)[C@@H](NC(=O)[C@H](CCN)NC(=O)c2ncc(Br)cc2Br)[C@@H](C)O)CCNC(=O)[C@H]([C@@H](C)O)NC(=O)[C@H](CCN)NC(=O)[C@H](CCN)NC1=O [Compound 22] (X36-[Dab]T[Dap][Dab][Dab][dL][Abu][Dab][Dab]T; lactam 4-C),<0.125,<0.125,0.5,<0.125,0.25,0.5,0.5,<0.125,<0.125,<0.125,0.5,0.5,0.5
CC(C)C[C@H]1NC(=O)[C@H](CCN)NC(=O)[C@@H](NC(=O)[C@H](CN)NC(=O)[C@@H](NC(=O)[C@H](CCN)NC(=O)c2cc3ccccc3n2C)[C@@H](C)O)CCNC(=O)[C@H]([C@@H](C)O)NC(=O)[C@H](CCN)NC(=O)[C@H](CCN)NC(=O)[C@H](C)NC1=O [Compound 65] (X22-[Dab]T[Dap][Dab][Dab][dL]A[Dab][Dab]T; lactam 4-C),0.5,0.5,1,1,0.25,0.25,1,0.25,0.25,1,0.5,0.5,0.5
CC[C@@H]1NC(=O)[C@@H](CC(C)C)NC(=O)[C@H](CCN)NC(=O)[C@@H](NC(=O)[C@H](CN)NC(=O)[C@@H](NC(=O)[C@H](CCN)NC(=O)c2sccc2Cl)[C@@H](C)O)CCNC(=O)[C@H]([C@@H](C)O)NC(=O)[C@H](CCN)NC(=O)[C@H](CCN)NC1=O [Compound 89] (X71-[Dab]T[Dap][Dab][Dab][dL][Abu][Dab][Dab]T; lactam 4-C),<0.125,0.25,4,<0.125,0.25,0.25,4,<0.125,<0.125,<0.125,1,0.25,2
